Measurements from patent publication US20170121315A1, “HETEROBICYCLICALLY SUBSTITUTED 4-OXOBUTANE ACID DERIVATIVES AND USE THEREOF” (priority 2014, published 2017).

Key:
Type in all cases: biochemical
MMP-2 = target: T1, MMP-2 (Homo sapiens, UniProt P08253); assay: In vitro MMP-2 inhibition test; details: human MMP-2
T1 construct: purchased R&D Systems 902-MP
T1 sequence (P08253 110-660): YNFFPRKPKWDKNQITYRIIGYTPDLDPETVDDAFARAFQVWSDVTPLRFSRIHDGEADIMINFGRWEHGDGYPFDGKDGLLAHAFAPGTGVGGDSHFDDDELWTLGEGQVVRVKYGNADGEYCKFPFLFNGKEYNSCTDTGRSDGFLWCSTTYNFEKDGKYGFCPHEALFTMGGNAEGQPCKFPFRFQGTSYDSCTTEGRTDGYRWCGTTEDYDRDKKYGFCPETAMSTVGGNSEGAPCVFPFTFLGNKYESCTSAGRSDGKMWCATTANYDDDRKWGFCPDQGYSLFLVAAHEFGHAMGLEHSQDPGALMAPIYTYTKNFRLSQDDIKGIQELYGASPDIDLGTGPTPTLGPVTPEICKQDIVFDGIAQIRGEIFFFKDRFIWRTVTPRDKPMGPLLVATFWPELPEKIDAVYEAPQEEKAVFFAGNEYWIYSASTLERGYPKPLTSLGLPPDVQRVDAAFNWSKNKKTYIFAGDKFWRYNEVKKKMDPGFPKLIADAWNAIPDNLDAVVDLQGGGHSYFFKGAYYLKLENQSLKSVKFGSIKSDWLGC
In short: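 APMA-activated recombinant MMP-2 (final e.g. 2 nM) with compound (e.g. 1 nM to 30 μM) in Tris/HCl pH 7.5 buffer with CaCl2, NaCl, Brij-35. Reaction started with quenched Mca-PLGL-Dpa(Dnp)-AR-NH2 substrate (final e.g. 10 μM); fluorescence (ex 320/em 410 nm) followed e.g. 120 min at 32 °C; IC50 at 50% signal.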

MMP-7 = target: T2, MMP-7 (Homo sapiens, UniProt P09237); assay: In vitro MMP-7 inhibition test; details: human MMP-7
T2 construct: purchased R&D Systems 907-MP
T2 sequence (P09237 95-267): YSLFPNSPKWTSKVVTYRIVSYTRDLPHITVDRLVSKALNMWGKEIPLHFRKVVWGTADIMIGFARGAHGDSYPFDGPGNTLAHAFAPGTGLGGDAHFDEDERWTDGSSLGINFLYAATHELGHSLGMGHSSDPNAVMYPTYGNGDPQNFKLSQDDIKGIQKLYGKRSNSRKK

MMP-10 = target: T3, MMP-10 (Homo sapiens, UniProt P09238); assay: In vitro MMP-10 inhibition test; details: human MMP-10
T3 construct: purchased R&D Systems 910-MP
In short: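 APMA-activated recombinant MMP-10 (e.g. 2 nM final) with compound in Tris/HCl pH 7.5, CaCl2, NaCl, Brij-35 buffer; reaction started with quenched Mca/Dnp peptide substrate (e.g. 10 μM final). Fluorescence (ex 320/em 410 nm) followed e.g. 120 min at 32 °C; IC50 at 50% signal.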

MMP-8 = target: T4, MMP-8 (Homo sapiens, UniProt P22894); assay: In vitro MMP-8 inhibition test; details: human MMP-8
T4 construct: purchased R&D Systems 908-MP
In short: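 Recombinant APMA-activated MMP-8 (e.g. 0.5 nM final) incubated with compound in 50 mM Tris/HCl pH 7.5, 10 mM CaCl2, 150 mM NaCl, 0.05% Brij-35. Reaction started with quenched Mca-PLGL-Dpa(Dnp)-AR-NH2 substrate (e.g. 10 μM final); fluorescence (ex 320/em 410 nm) followed e.g. 120 min at 32 °C; IC50 at 50% signal.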

T3 sequence (P09238 99-476): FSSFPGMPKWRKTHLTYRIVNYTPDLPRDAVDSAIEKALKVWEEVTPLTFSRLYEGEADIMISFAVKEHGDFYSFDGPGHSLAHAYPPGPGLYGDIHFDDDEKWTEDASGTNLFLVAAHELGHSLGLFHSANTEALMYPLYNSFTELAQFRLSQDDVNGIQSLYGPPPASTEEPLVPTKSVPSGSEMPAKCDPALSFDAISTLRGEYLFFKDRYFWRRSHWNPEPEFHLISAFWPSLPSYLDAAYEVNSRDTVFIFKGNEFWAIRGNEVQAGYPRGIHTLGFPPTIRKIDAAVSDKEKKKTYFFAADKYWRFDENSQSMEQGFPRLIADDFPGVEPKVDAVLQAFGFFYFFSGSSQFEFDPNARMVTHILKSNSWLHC
T4 sequence (P22894 101-467): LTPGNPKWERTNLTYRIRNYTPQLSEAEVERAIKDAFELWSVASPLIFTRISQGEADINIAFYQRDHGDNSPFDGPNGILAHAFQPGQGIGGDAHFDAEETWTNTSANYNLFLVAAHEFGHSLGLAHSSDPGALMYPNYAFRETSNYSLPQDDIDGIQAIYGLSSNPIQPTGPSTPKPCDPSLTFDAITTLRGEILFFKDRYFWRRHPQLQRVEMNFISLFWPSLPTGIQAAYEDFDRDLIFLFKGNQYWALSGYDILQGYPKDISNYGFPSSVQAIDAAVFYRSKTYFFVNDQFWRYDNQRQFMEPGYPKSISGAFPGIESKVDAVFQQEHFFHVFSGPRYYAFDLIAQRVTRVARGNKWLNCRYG

IC50 (MMP-2) [nM]	IC50 (MMP-7) [nM]	IC50 (MMP-10) [nM]	IC50 (MMP-8) [nM]	Compound
2900	> 40000	28000	> 40000	CCCCCCCOc1ccc2cc(C(=O)CC(CCn3nnc4ccccc4c3=O)C(=O)O)oc2c1 (single isomer, unassigned; (+)) [Example 69, (+)-4-[6-(Heptyloxy)-1-benzofur-2-yl]-4-oxo-2-[2-(4-oxo-1,2,3-benzotriazin-3(4H)-yl)ethyl]butanoic acid acid]
490	> 40000	12000	440	O=C(CC(CCn1nnc2ccccc2c1=O)C(=O)O)c1coc2cc(OCC3CCCC3)ccc12 (single isomer, unassigned; (+)) [Example 80, (+)-4-[6-(Cyclopentylmethoxy)-1-benzofur-3-yl]-4-oxo-2-[2-(4-oxo-1,2,3-benzotriazin-3(4H)-yl)ethyl]butanoic acid]
170	> 40000	6800	580	O=C(CC(CCn1nnc2ccccc2c1=O)C(=O)O)c1coc2cc(OCC3CCCCC3)ccc12 (single isomer, unassigned; (+)) [Example 82, (+)-4-[6-(Cyclohexylmethoxy)-1-benzofur-3-yl]-4-oxo-2-[2-(4-oxo-1,2,3-benzotriazin-3(4H)-yl)ethyl]butanoic acid]
140	> 40000	11000	2800	CCCCCCOc1ccc2c(C(=O)CC(CCn3nnc4ccccc4c3=O)C(=O)O)coc2c1 (single isomer, unassigned; (+)) [Example 100, (+)-4-[6-(Hexyloxy)-1-benzofur-3-yl]-4-oxo-2-[2-(4-oxo-1,2,3-benzotriazin-3(4H)-yl)ethyl]butanoic acid]
220	3200	2500	240	O=C(CC(CCn1nnc2ccccc2c1=O)C(=O)O)c1cc2ccc(OCC3CC3)cc2s1 (single isomer, unassigned; (+)) [Example 112, (+)-4-[6-(Cyclopropylmethoxy)-1-benzothiophen-2-yl]-4-oxo-2-[2-(4-oxo-1,2,3-benzotriazin-3(4H)-yl)ethyl]butanoic acid]
270	> 40000	9000	170	O=C(C[C@H](CCn1nnc2ccccc2c1=O)C(=O)O)c1noc2cc(OCC3CCOCC3)ccc12 (single isomer, unassigned; enantiomer 2) [Example 135]
1700	300	340	310	O=C(O)[C@@H]1[C@@H](Cn2nnc3ccc(C(F)(F)F)cc3c2=O)CC[C@H]1C(=O)c1cc2cc(OCCc3ccccc3)ccc2o1 (single isomer, unassigned; enantiomer 2) [Example 159, (+)-(1RS,2SR,5RS)-2-{[4-Oxo-6-(trifluoromethyl)-1,2,3-benzotriazin-3(4H)-yl]methyl}-5-{[5-(2-phenylethoxy)-1-benzofur-2-yl]carbonyl}cyclopentanecarboxylic acid (enantiomer 2)]

Compound	IC50 (MMP-2) [nM]	IC50 (MMP-7) [nM]	IC50 (MMP-10) [nM]	IC50 (MMP-8) [nM]
O=C(CC(CCn1nnc2ccccc2c1=O)C(=O)O)c1cc2cc(OCCCC(F)(F)F)ccc2o1 (single isomer, unassigned; enantiomer 2) [Example 13, (+)-4-Oxo-2-[2-(4-oxo-1,2,3-benzotriazin-3(4H)-yl)ethyl]-4-[5-(4,4,4-trifluorobutoxy)-1-benzofur-2-yl]butanoic acid (enantiomer 2)]	1300	> 40000	15000	5000
